System: HCT-116
Experiment: Cytotoxicity against human HCT116 cells after 24 hrs by MTT assay
Type: functional, cell-based
Conditions: HCT-116, 24 h

SMILES | IC50 [µM]
CO[C@H]1[C@@H]2C[C@H]3C(C)(C)O[C@@](/C=C/C(C)(C)O)(C2=O)[C@@]32Oc3c(c(O)cc4c3C(C)(C)C(C)O4)C(=O)[C@H]12 (stereo partly drawn) | 14.2
CC(C)=CCOc1cc(O)c2c(c1)OC13C(=CC4CC1C(C)(C)OC3(CC=C(C)C)C4=O)C2=O (mixture of isomers) | 23.9
COc1cccc2c1C(=O)c1c(O)c3c(c(O)c1C2=O)C[C@@](O)(C(=O)CO)C[C@@H]3O[C@H]1C[C@H](N)[C@H](O)[C@H](C)O1 [DOXORUBICIN] | 9.74

From ChEMBL document CHEMBL4118051, “Scalemic Caged Xanthones Isolated from the Stem Bark Extract of Garcinia propinqua” (J Nat Prod, 2017)
